Data from patent publication US20160000762A1, “IMPROVING COGNITIVE FUNCTION” (THE REGENTS OF THE UNIVERSITY OF CALIFORNIA, priority 2013, published 2016).

What was measured:
dendritic spines = test: Golgi staining, dendritic spines of APP knockout mice; format: in vivo; conditions: hippocampal CA1 neurons; 30 mg/kg, 2 weeks
Text: Animals. Wild-type C57BL/6J and APP knockout mice (B6.12957-APPtm1Dbo/J) were obtained from Jackson Laboratories (Bar Harbor, Me., USA). CD1 mice were obtained from Vivasource. All animal experiments were approved by the Institutional Animal Care and Use Committees at Georgetown University and Johns Hopkins University. All animals were maintained according to protocols approved by the Animal Welfare and Use Committee at both institutes.
Golgi staining and morphological analysis of dendritic spines. To analyze dendritic spine density and morphology in brain, FD RAPID GOLGISTAIN KIT™ (FD NeuroTechnologies, Ellicott City, Md., USA) was used. Dissected mouse brains were immersed in Solution A and B for 2 weeks in dark conditions at room temperature and transferred into Solution C for 24 h at 4° C. Brains were sliced using a VT1000S Vibratome (Leica, Bannockburn, Ill., USA) at 150 μm thickness. Dendritic images were acquired by Axioplan 2 (Zeiss, Oberkochen, Germany) under brightfield microscopy. Spine width, length, and linear density of cortical layers II/III and CA1 of hippocampus were measured using Scion image software (Scion Corporation, Frederick, Md., USA). Images were coded, and dendritic spines counted in a blinded manner. Spines from 0.2 to 2 μm in length were included for analysis. All morphological analysis was done blind to experimental conditions. […]

Ras = test: GST-Raf1-RBD pulldown of active Ras, primary cortical neurons; format: cell-based; conditions: 5 μM
Experimental: GST-pull-down assay. To measure levels of active Ras, brain lysate homogenized with Ral buffer (25 mM Tris-HCl, pH 7.4, 250 mM NaCl, 0.5% NP40, 1.25 mM MgCl2, and 5% glycerol) from APP transgenic, APP knockout, or wild-type mice was incubated with GST-Raf-RBD purified protein coupled with GLUTATHIONE SEPHAROSE™ (Amersham) overnight at 4° C. After 24 hours, pellets were washed with Ral buffer and western blotting was conducted with anti-Ras.
We next investigated the molecular mechanism by which BTA-EG4 may alter dendritic spine formation. Ras, a small GTPase, is involved in dendritic spine formation and synaptic delivery of AMPA receptors (Zhu et al., 2002; Lee et al., 2011). Moreover, abnormal Ras signaling is associated with neurodegenerative disease, causing cognitive impairments and learning deficits (Stornetta and Zhu, 2011). Thus, we initially investigated the effect of BTA-EG4 on Ras signaling by treating primary hippocampal neurons with BTA-EG4 (5 μM) or control for 24 hrs. […] Further, levels of active Ras were elevated following BTA-EG4 treatment (5 μM) in primary cortical neurons (FIG. 7C) and following BTA-EG4 treatment (30 mg/kg) in wild-type mice (FIG. 7D). We also examined whether BTA-EG4 can alter the activity of downstream Ras signaling proteins, including p-ERK and p-CREB.

[1] = system: RasGRF1, GluA1, GluA2, p-ERK, p-Elk; test: Western blot of cortex and hippocampus, 3× Tg AD mice; format: in vivo
Experimental: Western blot and analysis. 3× Tg AD mice were injected with 30 mg/kg BTA-EG4 or vehicle daily for 2 weeks. After 2 weeks, the cortex and hippocampus were dissected and homogenized with RIPA buffer. Brain lysates were reduced, boiled, and run on a polyacrylamide gel followed by transfer onto nitrocellulose membrane and incubation in the following primary antibodies: rabbit anti-RasGRF1 (Santa Cruz, C-20), rabbit anti-GluA1 (Millipore, ab1504),mouse anti-GluA2 (Neuromab), rabbit anti-p-ERK (Invitrogen, 36880), or p-Elk (Cell Signal, 9181). Primary antibodies were applied overnight, washed with TBS buffer (3 washes, 5 min each), and HRP conjugated secondary antibodies were applied for 1 h. After 1 h, membranes were washed with TBS buffer (3 washes, 5 min each) and proteins were visualized by affixing the blots to autoradiography film. The density of each band was then quantified using ImageJ software (National Institutes of Health, […].) as a percentage of control following normalization to β-actin.

[2] = Morris Water Maze, 3× Tg AD mice; format: in vivo; conditions: for escape latency during training trials: 30 mg/kg daily, 2 weeks
Experimental: Morris Water Maze. To examine the effects of BTA-EG4 on learning and memory, we injected 2-3 month old, 6-10 month old, and 13-16 month old 3× Tg AD mice daily (i.p.) for 2 weeks before beginning behavioral testing as described previously (Minami et al., 2012). The control groupw as treated with vehicle solution (10% DMSO) while the experimental group was treated with BTA-EG4 (30 mg/kg) daily for 2 weeks. Animals were kept on a fixed 12 hour light-dark cycle, and behavioral experiments were conducted during the light portion of this cycle. Specifically, experiments began at 9:30 AM and concluded before 4:00 PM. Briefly, the amount of time required for animals to locate a Plexiglas platform submerged in opaque water was measured in a large circular pool. The animal was randomly placed into one of four quadrants separated by 90°, and the platform was hidden in one of these quadrants (14 in. from the wall). TOPSCAN software tracked the time required (latency, limited to 60 s) to locate the hidden platform, and animals failing to locate the platform within 60 s were gently guided to the platform. On the first trial, animals were allowed to remain on the platform for 15 s. All subsequent trials limited platform time to 10 s, and a probe trial (60 s) was administered 24 h after the final learning trial. Time spent in the quadrant where the platform was previously located and number of platform crossings were recorded during this probe trial. As a control, 12 h after the last trial, animals were required to locate a clearly visible black platform placed in a new location.

[3] = Capule and Yang, 2012; Inbar et al., 2006; cited from earlier work
[4] = hippocampus, 6-10 months, 30 mg/kg daily, 2 weeks

BTA-EG4
dendritic spine density (dendritic spines): did not find a statistically significant increase | levels of active Ras (Ras): elevated | levels of p-Elk ([1]; 6-10 months): did not alter | levels of p-Elk ([1]; 13-16 months): did not alter | levels of p-ERK and ERK ([1]; cortex and hippocampus, 6-10 months, 30 mg/kg daily, 2 weeks): did not have altered levels | levels of AMPA receptor subunits ([1]; cortex and hippocampus, 13-16 months): no statistically significant change | GluA2 levels ([1]; cortex, 6-10 months, 30 mg/kg daily, 2 weeks): only a trend of an increase | GluA1 levels [1, 4]: without a significant change | GluA2 levels [1, 4]: increased | swim speed ([2]; 2-3 months): without differing | escape latency during training trials ([2]; 2-3 months): significantly faster | percentage of time in the target quadrant ([2]; 2-3 months, probe trials): greater percentage | platform crossings ([2]; 2-3 months, probe trials): more platform crossings | escape latency during training trials ([2]; 6-10 months): faster | number of platform crossings ([2]; 6-10 months, probe trials): without changes | percentage of time spent in the target quadrant ([2]; 6-10 months, probe trials): significantly improved | measured Morris Water Maze parameters (escape latency, swim speed, target quadrant time, platform crossings) ([2]; 13-16 months): none of the measured parameters were significantly altered | blood-brain barrier penetration [3]: can penetrate the blood-brain barrier | toxicity [3]: no toxicity
